Patent US9944602B2, “Piperidinone herbicides” (E. I. DU PONT DE NEMOURS AND COMPANY, priority 2014, dated 2018)

Tests used:
Format in all cases: in vivo
[1] = system: ducksalad (Heteranthera limosa); assay: Test B flooded paddy test ducksalad; conditions: Table B, Flood, 250 g ai/ha, scale 0 to 100
Method in brief: (§1)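 Test pots carrying 2-leaf-stage seedlings were flooded to 3 cm above the soil surface when treated. Compound went directly into the standing water. Plants stayed in the greenhouse at that depth for 13 to 15 d before visual comparison with controls.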

[2] = system: crabgrass, large (large crabgrass, Digitaria sanguinalis); assay: Test A preemergence crabgrass, large; conditions: 0 to 100 scale; for Crabgrass, Large plant response rating: 125 g ai/ha, 0 no effect, 100 complete control; for Plant response rating, Crabgrass, Large: 500 g ai/ha, 0 is no effect, 100 is complete control
From the text: (§2) Seeds of plant species selected from barnyardgrass (Echinochloa crus-galli), kochia (Kochia scoparia), ragweed (common ragweed, Ambrosia elatior), ryegrass, Italian (Italian ryegrass, Lolium multiflorum), crabgrass, large (large crabgrass, Digitaria sanguinalis), foxtail, giant (giant foxtail, Setaria faberii), morningglory (Ipomoea spp.), pigweed (Amaranthus retroflexus), velvetleaf (Abutilon theophrasti), wheat (Triticum aestivum), and corn (Zea mays) were planted into a blend of loam soil and sand and treated preemergence with a directed soil spray using test chemicals formulated in a non-phytotoxic solvent mixture which included a surfactant.
(§3) At the same time, plants selected from these crop and weed species and also blackgrass (Alopecurus myosuroides), and galium (catchweed bedstraw, Galium aparine) were planted in pots containing the same blend of loam soil and sand and treated with postemergence applications of test chemicals formulated in the same manner. Plants ranged in height from 2 to 10 cm and were in the one- to two-leaf stage for the postemergence treatment. Treated plants and untreated controls were maintained in a greenhouse for approximately 10 d, after which time all treated plants were compared to untreated controls and visually evaluated for injury. Plant response ratings, summarized in Table A, are based on a 0 to 100 scale where 0 is no effect and 100 is complete control. A dash (-) response means no test result.

[3] = system: pigweed (Amaranthus retroflexus); assay: Test A preemergence pigweed; conditions: 0 to 100 scale, 0 no effect, 100 complete control
Method in brief: (§4)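 Greenhouse pot test: chemicals formulated with surfactant in non-phytotoxic solvent, sprayed on soil at seeding (pre) or on 1–2 leaf seedlings of 2–10 cm (post). Rating ~10 d later, visual, 0 = no effect to 100 = complete control, relative to untreated controls.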

[4] = system: velvetleaf (Abutilon theophrasti); assay: Test A postemergence velvetleaf; conditions: 0 to 100 scale, 0 is no effect, 100 is complete control
From the text: as §2, §3

[5] = system: morningglory (Ipomoea spp.); assay: Test A postemergence morningglory; conditions: 0 to 100 scale, 0 is no effect, 100 is complete control
From the text: as §2, §3

[6] = system: barnyardgrass (Echinochloa crus-galli); assay: Test A postemergence barnyardgrass; conditions: 0 to 100 scale, 0 is no effect, 100 is complete control
Method in brief: as §4

[7] = system: corn (Zea mays); assay: Test A preemergence corn; conditions: 0 to 100 scale; for Corn plant response rating: 125 g ai/ha, 0 no effect, 100 complete control; for Plant response rating, Corn: 500 g ai/ha, 0 is no effect, 100 is complete control
From the text: as §2, §3

[8] = system: barnyardgrass (Echinochloa crus-galli); assay: Test A preemergence barnyardgrass; conditions: 0 to 100 scale; for Barnyardgrass plant response rating: 125 g ai/ha, 0 no effect, 100 complete control; for Plant response rating, Barnyardgrass: 500 g ai/ha, 0 is no effect, 100 is complete control
Method in brief: as §4

[9] = system: foxtail, giant (giant foxtail, Setaria faberii); assay: Test A postemergence foxtail, giant; conditions: 0 to 100 scale, 0 is no effect, 100 is complete control
Method in brief: as §4

[10] = system: sedge, umbrella (small-flower umbrella sedge, Cyperus difformis); assay: Test B flooded paddy test sedge, umbrella; conditions: Table B, Flood, 250 g ai/ha, scale 0 to 100
Method in brief: as §1

[11] = system: rice (Oryza sativa); assay: Test B flooded paddy test rice; conditions: Table B, Flood, 250 g ai/ha, scale 0 to 100
Method in brief: as §1

[12] = system: morningglory (Ipomoea spp.); assay: Test A preemergence morningglory; conditions: 0 to 100 scale, 0 no effect, 100 complete control
From the text: as §2, §3

[13] = system: barnyardgrass (Echinochloa crus-galli); assay: Test B flooded paddy test barnyardgrass; conditions: Table B, Flood, 250 g ai/ha, scale 0 to 100
Method in brief: as §1

[14] = system: crabgrass, large (large crabgrass, Digitaria sanguinalis); assay: Test A postemergence crabgrass, large; conditions: 0 to 100 scale, 0 is no effect, 100 is complete control
From the text: as §2, §3

[15] = system: foxtail, giant (giant foxtail, Setaria faberii); assay: Test A preemergence foxtail, giant; conditions: 0 to 100 scale, 0 no effect, 100 complete control
Method in brief: as §4

[16] = system: wheat (Triticum aestivum); assay: Test A preemergence wheat; conditions: 0 to 100 scale, 0 no effect, 100 complete control
From the text: as §2, §3

[17] = system: corn (Zea mays); assay: Test A postemergence corn; conditions: 0 to 100 scale, 0 is no effect, 100 is complete control
Method in brief: as §4

[18] = system: wheat (Triticum aestivum); assay: Test A postemergence wheat; conditions: 0 to 100 scale, 0 is no effect, 100 is complete control
Method in brief: as §4

[19] = system: pigweed (Amaranthus retroflexus); assay: Test A postemergence pigweed; conditions: 0 to 100 scale, 0 is no effect, 100 is complete control
Method in brief: as §4

[20] = system: velvetleaf (Abutilon theophrasti); assay: Test A preemergence velvetleaf; conditions: 0 to 100 scale, 0 no effect, 100 complete control
From the text: as §2, §3

SMILES	Plant response rating [1]	Crabgrass, Large plant response rating [2]	Plant response rating, Crabgrass, Large [2]	Pigweed plant response rating ([3]; 125 g ai/ha)	Pigweed plant response rating ([3]; 500 g ai/ha)	Plant response rating, Velvetleaf ([4]; 125 g ai/ha)	Plant response rating, Velvetleaf ([4]; 500 g ai/ha)	Plant response rating, Morningglory ([5]; 125 g ai/ha)	Plant response rating, Morningglory ([5]; 500 g ai/ha)	Plant response rating, Barnyardgrass ([6]; 125 g ai/ha)	Plant response rating, Barnyardgrass ([6]; 500 g ai/ha)	Corn plant response rating [7]	Plant response rating, Corn [7]	Barnyardgrass plant response rating [8]	Plant response rating, Barnyardgrass [8]	Plant response rating, Foxtail, Giant ([9]; 125 g ai/ha)	Plant response rating, Foxtail, Giant ([9]; 500 g ai/ha)	Plant response rating [10]	Plant response rating [11]	Morningglory plant response rating ([12]; 125 g ai/ha)	also measured
O=C1NCCC(c2ccc(F)c(F)c2)C1C(=O)Nc1ccccc1F (racemic) [Compound 1]	0	80	90	0	0	0	0	0	0	0	50	0	0	0	70	0	0	0	0	0	Morningglory plant response rating ([12]; 500 g ai/ha): 0; Plant response rating [13]: 0; Plant response rating, Crabgrass, Large ([14]; 125 g ai/ha): 30; Plant response rating, Crabgrass, Large ([14]; 500 g ai/ha): 70; Foxtail, Giant plant response rating ([15]; 125 g ai/ha): 30; Foxtail, Giant plant response rating ([15]; 500 g ai/ha): 90; Wheat plant response rating ([16]; 125 g ai/ha): 0; Wheat plant response rating ([16]; 500 g ai/ha): 0; Plant response rating, Corn ([17]; 125 g ai/ha): 0; Plant response rating, Corn ([17]; 500 g ai/ha): 0; Plant response rating, Wheat ([18]; 125 g ai/ha): 0; Plant response rating, Wheat ([18]; 500 g ai/ha): 0; Plant response rating, Pigweed ([19]; 125 g ai/ha): 0; Plant response rating, Pigweed ([19]; 500 g ai/ha): 0; Velvetleaf plant response rating ([20]; 125 g ai/ha): 0; Velvetleaf plant response rating ([20]; 500 g ai/ha): 0
O=C1NCCC(c2ccccc2)C1C(=O)Nc1ccccc1C(F)(F)F (racemic) [Compound 2]	0	70	90	0	0	0	0	0	0	0	0	0	0	0	20	0	0	0	0	0	Morningglory plant response rating ([12]; 500 g ai/ha): 0; Plant response rating [13]: 0; Plant response rating, Crabgrass, Large ([14]; 125 g ai/ha): 0; Plant response rating, Crabgrass, Large ([14]; 500 g ai/ha): 10; Foxtail, Giant plant response rating ([15]; 125 g ai/ha): 10; Foxtail, Giant plant response rating ([15]; 500 g ai/ha): 70; Wheat plant response rating ([16]; 125 g ai/ha): 0; Wheat plant response rating ([16]; 500 g ai/ha): 0; Plant response rating, Corn ([17]; 125 g ai/ha): 0; Plant response rating, Corn ([17]; 500 g ai/ha): 0; Plant response rating, Wheat ([18]; 125 g ai/ha): 0; Plant response rating, Wheat ([18]; 500 g ai/ha): 0; Plant response rating, Pigweed ([19]; 125 g ai/ha): 0; Plant response rating, Pigweed ([19]; 500 g ai/ha): 0; Velvetleaf plant response rating ([20]; 125 g ai/ha): 0; Velvetleaf plant response rating ([20]; 500 g ai/ha): 0
O=C1NCCC(c2ccccc2)C1C(=O)Nc1ccccc1F (racemic) [Compound 3]	0	0	30	0	0	0	0	0	0	0	0	0	0	0	0	0	0	0	0	0	Morningglory plant response rating ([12]; 500 g ai/ha): 0; Plant response rating [13]: 0; Plant response rating, Crabgrass, Large ([14]; 125 g ai/ha): 0; Plant response rating, Crabgrass, Large ([14]; 500 g ai/ha): 0; Foxtail, Giant plant response rating ([15]; 125 g ai/ha): 0; Foxtail, Giant plant response rating ([15]; 500 g ai/ha): 0; Wheat plant response rating ([16]; 125 g ai/ha): 0; Wheat plant response rating ([16]; 500 g ai/ha): 20; Plant response rating, Corn ([17]; 125 g ai/ha): 0; Plant response rating, Corn ([17]; 500 g ai/ha): 0; Plant response rating, Wheat ([18]; 125 g ai/ha): 0; Plant response rating, Wheat ([18]; 500 g ai/ha): 0; Plant response rating, Pigweed ([19]; 125 g ai/ha): 0; Plant response rating, Pigweed ([19]; 500 g ai/ha): 0; Velvetleaf plant response rating ([20]; 125 g ai/ha): 0; Velvetleaf plant response rating ([20]; 500 g ai/ha): 0
